This passage reports IC50 results from US20160130278A1 (TAISHO PHARMACEUTICAL CO., LTD, priority 2013, published 2016).

The assay deals with T1, human type 1 glycine transporter (GlyT1) (Homo sapiens, UniProt P48067).
T1 construct: T98G cells (glioma cells) expressing human type 1 glycine transporter (GlyT1) were used
T1 sequence (P48067 1-706): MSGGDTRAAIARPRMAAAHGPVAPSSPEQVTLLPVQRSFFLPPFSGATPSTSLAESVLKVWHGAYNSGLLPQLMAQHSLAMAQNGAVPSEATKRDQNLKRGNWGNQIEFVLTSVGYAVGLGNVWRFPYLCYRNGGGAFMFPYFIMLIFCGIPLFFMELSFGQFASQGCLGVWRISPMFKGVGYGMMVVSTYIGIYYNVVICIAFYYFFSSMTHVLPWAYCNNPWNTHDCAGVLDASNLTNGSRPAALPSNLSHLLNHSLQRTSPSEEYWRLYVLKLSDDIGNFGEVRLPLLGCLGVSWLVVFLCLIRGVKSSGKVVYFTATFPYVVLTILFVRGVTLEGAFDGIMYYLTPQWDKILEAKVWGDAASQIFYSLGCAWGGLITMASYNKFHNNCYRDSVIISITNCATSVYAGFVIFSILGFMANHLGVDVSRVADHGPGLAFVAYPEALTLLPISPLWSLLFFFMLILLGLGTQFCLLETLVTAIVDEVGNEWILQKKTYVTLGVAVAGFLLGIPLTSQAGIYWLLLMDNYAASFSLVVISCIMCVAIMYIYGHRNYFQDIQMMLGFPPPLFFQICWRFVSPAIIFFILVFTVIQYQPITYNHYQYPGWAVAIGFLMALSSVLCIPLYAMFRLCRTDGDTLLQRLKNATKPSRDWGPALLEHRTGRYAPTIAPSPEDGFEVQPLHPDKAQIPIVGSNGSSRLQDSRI
Nature of the assay: Glycine uptake inhibition experiment ([3H]glycine uptake). The class given is cell-based. In a few lines:
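T98G glioma cells expressing human GlyT1 were pretreated 10 min with compound in HEPES buffer pH 7.4 (0.2% BSA), then incubated with compound plus 250 nM final [3H]glycine for 15 min at room temperature. Intracellular radioactivity was counted after NaOH lysis; 10 μM ALX5407 defined non-specific uptake. IC50 came from 10^−9–10^−5 M curves.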

Broadly, the IC50 is the concentration that gives 50% inhibition.

For the compound `CS(=O)(=O)c1cc(C(F)(F)F)ccc1C(=O)NC(c1cccc(Cl)c1F)C1(O)CCC(F)(F)CC1` (single isomer, unassigned) [Compound 402, N-[(3-chloro-2-fluorophenyl)(4,4-difluoro-1-hydroxycyclohexyl)methyl]-2-(methylsulfonyl)-4-(trifluoromethyl)benzamide], where the note is “human GlyT1”, it took 450 nM to reach half-maximal inhibition (IC50).

For `CS(=O)(=O)c1cnc(C(F)(F)F)cc1C(=O)NC(c1ccccc1Cl)C1(O)CCC(F)(F)CC1` (single isomer, unassigned) [Compound 403, N-[(2-chlorophenyl)(4,4-difluoro-1-hydroxycyclohexyl)methyl]-5-(methylsulfonyl)-2-(trifluoromethyl)pyridine-4-carboxamide], the IC50 (human GlyT1) came out at 120 nM.

Consider `CS(=O)(=O)c1ncc(C(F)(F)F)cc1C(=O)NC(c1ccccc1Cl)C1(O)CCC(F)(F)CC1` (single isomer, unassigned) [Compound 404, N-[(2-chlorophenyl)(4,4-difluoro-1-hydroxycyclohexyl)methyl]-2-(methylsulfonyl)-5-(trifluoromethyl)pyridine-3-carboxamide], for which half-maximal inhibition (human GlyT1) (IC50) required 170 nM.

The compound `CS(=O)(=O)c1cc(C(F)(F)F)ccc1C(=O)NC(c1ccccc1Cl)C1(O)CCC(F)(F)CC1` (single isomer, unassigned) [Compound 405, N-[(2-chlorophenyl)(4,4-difluoro-1-hydroxycyclohexyl)methyl]-2-(methylsulfonyl)-4-(trifluoromethyl)benzamide] had an IC50 (human GlyT1) of 200 nM.

Take `CS(=O)(=O)c1nc(C(F)(F)F)ccc1C(=O)NC(c1ccccc1Cl)C1(O)CCC(F)(F)CC1` (single isomer, unassigned) [Compound 406, N-[(2-chlorophenyl)(4,4-difluoro-1-hydroxycyclohexyl)methyl]-2-(methylsulfonyl)-6-(trifluoromethyl)pyridine-3-carboxamide]: under “human GlyT1”, the midpoint of inhibition, the IC50, lay at 320 nM.

Where the note is “human GlyT1”, `O=C(NC(c1ccccc1Cl)C1(O)CCC(F)(F)CC1)c1ncc(C(F)(F)F)cc1-n1nccn1` (single isomer, unassigned) [Compound 407, N-[(2-chlorophenyl)(4,4-difluoro-1-hydroxycyclohexyl)methyl]-3-(2H-1,2,3-triazol-2-yl)-5-(trifluoromethyl)pyridine-2-carboxamide] gave an IC50 of 1000 nM.

Compound `O=C(NC(c1ccccc1Cl)C1(O)CCC(F)(F)CC1)c1ccc(C(F)(F)F)nc1-n1nccn1` (single isomer, unassigned) [Compound 408, N-[(2-chlorophenyl)(4,4-difluoro-1-hydroxycyclohexyl)methyl]-2-(2H-1,2,3-triazol-2-yl)-6-(trifluoromethyl)pyridine-3-carboxamide] registered an IC50 (human GlyT1) of 2200 nM.

Compound `O=C(NC(c1ccccc1Cl)C1(O)CCC(F)(F)CC1)c1ccc(C(F)(F)F)nc1Cl` (single isomer, unassigned) [Compound 409, 2-chloro-N-[(2-chlorophenyl)(4,4-difluoro-1-hydroxycyclohexyl)methyl]-6-(trifluoromethyl)pyridine-3-carboxamide] had an IC50 (human GlyT1) of 1100 nM.

As for `CCn1cc(-c2cccc(C(NC(=O)c3cccc(C(F)(F)F)c3Cl)C3(O)CCCC3)c2)cn1` (stereo not drawn) [Compound 1, 2-chloro-N-{[3-(1-ethyl-1H-pyrazol-4-yl)phenyl](1-hydroxycyclopentyl)methyl}-3-(trifluoromethyl)benzamide], half-maximal inhibition (GlyT1) (IC50) was put at 110 nM.

For `O=C(NC(c1cccc(Br)c1)C1(O)CCCC1)c1cccc(C(F)(F)F)c1Cl` (stereo not drawn) [Compound 2, N-[(3-bromophenyl)(1-hydroxycyclopentyl)methyl]-2-chloro-3-(trifluoromethyl)benzamide], inhibition (GlyT1) was half-maximal at 670 nM (IC50).

On to `O=C(NC(c1cccc(-c2cccnc2)c1)C1(O)CCCC1)c1cccc(C(F)(F)F)c1Cl` (stereo not drawn) [Compound 3, 2-chloro-N-{(1-hydroxycyclopentyl)[3-(pyridin-3-yl)phenyl]methyl}-3-(trifluoromethyl)benzamide], for which the IC50 (GlyT1) was 360 nM.

Regarding `O=C(NC(c1cccc(-c2ccncc2)c1)C1(O)CCCC1)c1cccc(C(F)(F)F)c1Cl` (stereo not drawn) [Compound 4, 2-chloro-N-{(1-hydroxycyclopentyl)[3-(pyridin-4-yl)phenyl]methyl}-3-(trifluoromethyl)benzamide], the midpoint of inhibition (GlyT1), the IC50, lay at 400 nM.

Take `N#Cc1ccc(-c2cccc(C(NC(=O)c3cccc(C(F)(F)F)c3Cl)C3(O)CCCC3)c2)cc1` (stereo not drawn) [Compound 5, 2-chloro-N-[(4′-cyanobiphenyl-3-yl)(1-hydroxycyclopentyl)methyl]-3-(trifluoromethyl)benzamide]: where the note is “GlyT1”, 880 nM corresponded to half-maximal inhibition (IC50).

`CC(=O)c1ccc(-c2cccc(C(NC(=O)c3cccc(C(F)(F)F)c3Cl)C3(O)CCCC3)c2)cc1` (stereo not drawn) [Compound 6, N-[(4′-acetylbiphenyl-3-yl)(1-hydroxycyclopentyl)methyl]-2-chloro-3-(trifluoromethyl)benzamide] yielded an IC50 (GlyT1) of 670 nM.

Regarding `O=C(NC(c1cccc(-c2cncnc2)c1)C1(O)CCCC1)c1cccc(C(F)(F)F)c1Cl` (stereo not drawn) [Compound 7, 2-chloro-N-{(1-hydroxycyclopentyl)[3-(pyrimidin-5-yl)phenyl]methyl}-3-(trifluoromethyl)benzamide], where the note is “GlyT1”, half-maximal inhibition (IC50) required 290 nM.

As for `N#Cc1cccc(C(NC(=O)c2cccc(C(F)(F)F)c2Cl)C2(O)CCCC2)c1` (stereo not drawn) [Compound 8, 2-chloro-N-[(3-cyanophenyl)(1-hydroxycyclopentyl)methyl]-3-(trifluoromethyl)benzamide], the half-inhibitory concentration (IC50) (GlyT1) came to 400 nM.

`O=C(NC(c1cccc(-c2cn[nH]c2)c1)C1(O)CCCC1)c1cccc(C(F)(F)F)c1Cl` (stereo not drawn) [Compound 9, 2-chloro-N-{(1-hydroxycyclopentyl)[3-(1H-pyrazol-4-yl)phenyl]methyl}-3-(trifluoromethyl)benzamide] gave an IC50 (GlyT1) of 110 nM.

On to `CCn1cc(-c2cccc(C(NC(=O)c3nccc(C(F)(F)F)c3Cl)C3(O)CCCC3)c2)cn1` (stereo not drawn) [Compound 10, 3-chloro-N-{[3-(1-ethyl-1H-pyrazol-4-yl)phenyl](1-hydroxycyclopentyl)methyl}-4-(trifluoromethyl)pyridine-2-carboxamide], for which, where the note is “GlyT1”, it took 13 nM to reach half-maximal inhibition (IC50).

In turn, `O=C(NC(c1ccccc1)C1(O)CCCC1)c1cccc(C(F)(F)F)c1Cl` (stereo not drawn) [Compound 11, 2-chloro-N-[(1-hydroxycyclopentyl)(phenyl)methyl]-3-(trifluoromethyl)benzamide] came in with an IC50 (GlyT1) of 1000 nM.

Compound `O=C(NC(c1ccccc1)C1(O)CCCC1)c1nccc(C(F)(F)F)c1Cl` (stereo not drawn) [Compound 12, 3-chloro-N-[(1-hydroxycyclopentyl)(phenyl)methyl]-4-(trifluoromethyl)pyridine-2-carboxamide] had an IC50 (GlyT1) of 480 nM.

`CCn1cc(-c2cccc(C(NC(=O)c3nccc(C(F)(F)F)c3Cl)C3(O)CCCCC3)c2)cn1` (stereo not drawn) [Compound 15, 3-chloro-N-{[3-(1-ethyl-1H-pyrazol-4-yl)phenyl](1-hydroxycyclohexyl)methyl}-4-(trifluoromethyl)pyridine-2-carboxamide] had an IC50 (GlyT1) of 8.5 nM.

For the setting “GlyT1”, `CCn1cc(-c2cccc(C(NC(=O)c3cccc(C(F)(F)F)c3Cl)C3(O)CCCCC3)c2)cn1` (stereo not drawn) [Compound 16, 2-chloro-N-{[3-(1-ethyl-1H-pyrazol-4-yl)phenyl](1-hydroxycyclohexyl)methyl}-3-(trifluoromethyl)benzamide] had an IC50 of 44 nM.

`O=C(NC(c1cccc(-c2cn[nH]c2)c1)C1(O)CCCC1)c1nccc(C(F)(F)F)c1Cl` (stereo not drawn) [Compound 17, 3-chloro-N-{(1-hydroxycyclopentyl)[3-(1H-pyrazol-4-yl)phenyl]methyl}-4-(trifluoromethyl)pyridine-2-carboxamide] displayed an IC50 (GlyT1) of 14 nM.

In the case of `O=C(NC(c1cccc(-c2cncnc2)c1)C1(O)CCCC1)c1nccc(C(F)(F)F)c1Cl` (stereo not drawn) [Compound 18, 3-chloro-N-{(1-hydroxycyclopentyl)[3-(pyrimidin-5-yl)phenyl]methyl}-4-(trifluoromethyl)pyridine-2-carboxamide], where the note is “GlyT1”, the IC50 is 92 nM.

Compound `O=C(NC(c1cccc(-c2ccncc2)c1)C1(O)CCCC1)c1nccc(C(F)(F)F)c1Cl` (stereo not drawn) [Compound 19, 3-chloro-N-{(1-hydroxycyclopentyl)[3-(pyridin-4-yl)phenyl]methyl}-4-(trifluoromethyl)pyridine-2-carboxamide] gave an IC50 (GlyT1) of 34 nM.

`O=C(NC(c1cccc(-c2cccnc2)c1)C1(O)CCCC1)c1nccc(C(F)(F)F)c1Cl` (stereo not drawn) [Compound 20, 3-chloro-N-{(1-hydroxycyclopentyl)[3-(pyridin-3-yl)phenyl]methyl}-4-(trifluoromethyl)pyridine-2-carboxamide] came in with an IC50 (GlyT1) of 17 nM.

In turn, `CCn1cc(-c2cccc(C(NC(=O)c3ncccc3Cl)C3(O)CCCC3)c2)cn1` (stereo not drawn) [Compound 21, 3-chloro-N-{[3-(1-ethyl-1H-pyrazol-4-yl)phenyl](1-hydroxycyclopentyl)methyl}pyridine-2-carboxamide] had an IC50 (GlyT1) of 4600 nM.
